The results in this text go back to patent publication US20050260126A1 (priority 2002, published 2005).

Series [1] has as its system abnormal prion proteins in ScN2a cells with persistent infection of scrapie. In words: cells. It counts as cell-based, mouse. The note with it: for IC50: Mus musculus, ScN2a, 96 h, read-out: Inhibitory effects on producing abnormal prion protein IC50; for Inhibitory effects on producing abnormal prion proteins (in words): ScN2a cells.
Another series relates to ScN2a cells. The note with it: for Concentration of inhibiting cell proliferation TC: mouse.

One may read the IC50 as the concentration at which inhibition is half-maximal. Consider `CN(C)c1ccc(/C=C/c2nc3cc([N+](=O)[O-])ccc3o2)cc1` [BF-135, 2-(4-dimethylamino) styryl-5-nitrobenzoxazole], for which, in series [1], the IC50 stood at 1 nM and the “Inhibitory effects on producing abnormal prion proteins (in words)” value (shortened to “Inhibitory effects”) is “highly inhibitory effects”. In the series with ScN2a cells, the “TC and safety concentration margin (in words)” value is given as “higher TCs, therefore higher safety concentration margins”; the “Concentration of inhibiting cell proliferation TC” value was 100 µM.
As to `CN(C)c1ccc(/C=C/c2nccn2C)cc1` [BF-138, 2-[2-(4-dimethylamino-phenyl)ethenyl]-1-methylimidazole], in series [1], the IC50 stood at 100 nM. The “Concentration of inhibiting cell proliferation TC” value with ScN2a cells amounted to 100 µM.
Turning to `Nc1ccc(-c2nc3ccc(O)cc3s2)cc1` [BF-160, 2-(4-aminophenyl)-6-hydroxybenzothiazole], the IC50 in series [1] came out at 10 nM. In addition, the “Concentration of inhibiting cell proliferation TC” value with ScN2a cells came to 10 µM.
Taken in the same sequence, the figures for `CN(C)c1ccc2cc(-c3nc4cc(F)ccc4o3)cnc2c1` [BF-161, 5-fluoro-2-(7-dimethyl-aminoquinolin-3-yl)-benzoxazole] were 10 nM and 100 µM.
Turning to `CN(C)c1ncc(-c2ccc3ccccc3n2)o1` [BF-221, 2-(2-dimethylamino-oxazol-5-yl)quinoline], in series [1], the IC50 amounted to 80 nM. The “Concentration of inhibiting cell proliferation TC” value in the series with ScN2a cells was more than 10 µM.
For `C(=C\c1cncs1)/c1nc2ccccc2o1` [BF-234], the IC50 in series [1] was found to be 40 nM. In the series with ScN2a cells, the “Concentration of inhibiting cell proliferation TC” value was more than 10 µM.
On to `Nc1ccc(C(=O)Nc2ccc(-c3nc4cc(N)ccc4o3)cc2)cc1` [Compound N-220, 4-(5-aminobenzoxazol-2-yl)-N-(4-amino-benzoyl)aniline], for which, in series [1], the IC50 was 1 nM and the “Inhibitory effects” value is recorded as “highly inhibitory effects”. Moreover, the “Concentration of inhibiting cell proliferation TC” value in the series with ScN2a cells stood at 10 µM.
As to `Nc1ccc(-c2nc3cc(Cc4ccc5oc(-c6ccc(N)cc6)nc5c4)ccc3o2)cc1` [Compound N-221], in series [1], the IC50 stood at 1 nM and the “Inhibitory effects” value is on record as “highly inhibitory effects”. In addition, in the series with ScN2a cells, the “Concentration of inhibiting cell proliferation TC” value is more than 10 µM.
As for `Nc1ccc(-c2nc3ccc(N)cc3s2)cc1` [Compound N-224, 2-(4-aminophenyl)-6-aminobenzothiazole], in series [1], the IC50 worked out at 1 nM and the “Inhibitory effects” value is listed as “highly inhibitory effects”. Further, the “Concentration of inhibiting cell proliferation TC” value with ScN2a cells was more than 10 µM.
Turning to `Nc1ccc(-c2nc3cc(N)ccc3o2)cc1` [Compound N-225, 2-(4-aminophenyl)-5-aminobenzoxazole], the IC50 in series [1] was found to be 100 nM. The “Concentration of inhibiting cell proliferation TC” value in the series with ScN2a cells was more than 10 µM.
On to `Nc1ccc(-c2nc3ccc(N)cc3o2)cc1` [Compound N-226, 2-(4-aminophenyl)-6-aminobenzoxazole], for which, in series [1], the IC50 came out at 100 nM. For the same molecule, the “Concentration of inhibiting cell proliferation TC” value with ScN2a cells was more than 10 µM.
Consider `Nc1ccc(-c2nc3cc(N)ccc3s2)cc1` [Compound N-231, 2-(4-aminophenyl)-5-aminobenzothiazole], for which the IC50 in series [1] is 10 nM. The “Concentration of inhibiting cell proliferation TC” value in the series on ScN2a cells was 10 µM.
As to `Nc1ccc(-c2nc3cc(N)ccc3s2)c(O)c1` [Compound N-232, 2-(4-amino-2-hydroxy-phenyl)-5-amino-benzothiazole], in series [1], the IC50 stood at 1 nM and the “Inhibitory effects” value is listed as “highly inhibitory effects”. Further, the “Concentration of inhibiting cell proliferation TC” value in the series on ScN2a cells worked out at 10 µM.
For the molecule `Nc1ccc(C(=O)Nc2ccc3nc(-c4cc(Cl)c(NC(=O)c5ccc(N)cc5)c(Cl)c4)[nH]c3c2Cl)cc1` [Compound N-233, 4-[6-(N′-(4-amino-benzoyl)amino)-7-chlorobenzimidazol-2-yl]-N-(4-aminobenzoyl)-2,6-dichloroaniline], the IC50 in series [1] amounted to 100 nM. For the same molecule, in the series with ScN2a cells, the “Concentration of inhibiting cell proliferation TC” value amounted to 10 µM.
As to `Nc1ccc(-c2nc3ccc(N)c(Cl)c3[nH]2)cc1` [Compound N-234, 2-(4-aminophenyl)-7-chloro-6-amino-benzimidazole], the IC50 in series [1] stood at 100 nM. Moreover, the “Concentration of inhibiting cell proliferation TC” value in the series on ScN2a cells is more than 10 µM.
Taken in the same sequence, the figures for `Cc1cc(N)cc2nc(-c3ccc(N)c(Cl)c3)[nH]c12` [Compound N-240, 2-(4-amino-3-chloro-phenyl)-5-amino-7-methylbenzimidazole] were 100 nM and 10 µM.
With `Nc1ccc(-c2nc3cc(Oc4ccc5[nH]c(-c6ccc(N)cc6)nc5c4)ccc3[nH]2)cc1` [Compound N-241], the IC50 in series [1] is 10 nM. Moreover, the “Concentration of inhibiting cell proliferation TC” value in the series on ScN2a cells stood at 10 µM.
Take `Cc1cc2[nH]c(-c3ccc(N)cc3)nc2cc1N` [Compound N-242, 2-(4-aminophenyl)-5-amino-6-methyl-benzimidazole]: the half-inhibitory concentration (IC50) in series [1] was 100 nM. Further, the “Concentration of inhibiting cell proliferation TC” value with ScN2a cells came out at 10 µM.
With `Nc1ccc(C(=O)Nc2ccc(-c3nc4cc(N)ccc4[nH]3)cc2)cc1` [Compound N-243, 4-(5-aminobenzimidazol-2-yl)-N-(4-amino-benzoyl)aniline], in series [1], the IC50 amounted to 1 nM and the “Inhibitory effects” value is on record as “highly inhibitory effects”. In addition, the “Concentration of inhibiting cell proliferation TC” value in the series on ScN2a cells was more than 10 µM.
With `Nc1ccc(-c2nc3cc(Oc4ccc(Oc5ccc6[nH]c(-c7ccc(N)cc7)nc6c5)cc4)ccc3[nH]2)cc1` [Compound N-244], in series [1], the half-inhibitory concentration (IC50) stood at 10 nM. The “Concentration of inhibiting cell proliferation TC” value in the series with ScN2a cells was more than 10 µM.
Taken in the same sequence, the figures for `Nc1ccc(-c2nc3ccc(N)cc3[nH]2)cc1` [Compound N-245, 2-(4-aminophenyl)-5-aminobenzimidazole] were 100 nM and 10 µM.
As to `Nc1ccc(C(=O)Nc2ccc(-c3nc4cc(Cl)c(NC(=O)c5ccc(N)cc5)cc4[nH]3)cc2)cc1` [Compound N-246, 4-[6-(N′-(4-amino-benzoyl)amino)-5-chlorobenzimidazol-2-yl]-N-(4-aminobenzoyl)aniline], in series [1], the IC50 came to 1 nM and the “Inhibitory effects” value was “highly inhibitory effects”. The “Concentration of inhibiting cell proliferation TC” value with ScN2a cells stood at 10 µM.
Consider `CN(C)c1ccc(/C=C/c2nc3ccc4ccccc4c3s2)cc1` [Compound N-283, 4-[2-(naphth[4,5-c]-thiazol-2-yl)ethenyl]-N,N-dimethylbenzenamine], for which, in series [1], the IC50 worked out at 500 nM. Besides, the “Concentration of inhibiting cell proliferation TC” value in the series on ScN2a cells turned out to be 50 µM.
For the molecule `Nc1ccccc1/C=C/c1nc2ccccc2[nH]1` [Compound N-402, 2-[2-(2-aminophenyl)ethenyl]benzimidazole], the IC50 in series [1] was 50 nM. Besides, the “Concentration of inhibiting cell proliferation TC” value in the series with ScN2a cells was 50 µM.
Take `Cc1cccc(/C=C/c2nc3cc(C)ccc3s2)c1` [Compound N-439, 2-[2-(3-methylphenyl)-ethenyl]-5-methyl-benzothiazole]: the IC50 in series [1] came out at 10 nM. Further, the “Concentration of inhibiting cell proliferation TC” value in the series on ScN2a cells amounted to 100 µM.
As for `C/C(=C\c1ccc(N)cc1)c1nc2ccccc2[nH]1` [Compound N-442, 4-[2-(2-benzimidazolyl)-2-methylethenyl]benzenamine], the IC50 in series [1] was 100 nM. Also, the “Concentration of inhibiting cell proliferation TC” value in the series with ScN2a cells stood at 100 µM.
Take `Clc1ccc(/C=C/c2nc3ccccc3s2)c(Cl)c1` [Compound N-452, 2-[2-(2,4-dichloro-phenyl)ethenyl]-benzothiazole]: the IC50 in series [1] stood at 100 nM. For the same molecule, the “Concentration of inhibiting cell proliferation TC” value in the series with ScN2a cells turned out to be 100 µM.
Taken in the same sequence, the figures for `COc1ccc(/C=C/c2nc3ccccc3s2)cc1` [Compound N-455, 2-[2-(4-methoxyphenyl)-ethenyl]benzothiazole] were 10 nM and 100 µM.
As for `Nc1ccc(-c2cn3ccccc3n2)cc1` [Compound N-461, 2-(4-aminophenyl)-imidazo[1,2-a]pyridine], the IC50 in series [1] was found to be 100 nM. For the same molecule, the “Concentration of inhibiting cell proliferation TC” value with ScN2a cells is more than 10 µM.
In the case of `Cc1ccn2cc(-c3ccccc3)nc2c1` [Compound N-463, 2-phenyl-7-methyl-imidazo[1,2-a]pyridine], in series [1], the IC50 stood at 100 nM. For the same molecule, the “Concentration of inhibiting cell proliferation TC” value in the series with ScN2a cells is 100 µM.
Take `Clc1ccc2nc(-c3ccccc3)cn2c1` [Compound N-464, 2-phenyl-6-chloro-imidazo[1,2-a]pyridine]: in series [1], the IC50 worked out at 100 nM. For the same molecule, the “Concentration of inhibiting cell proliferation TC” value with ScN2a cells came to 100 µM.
For `Clc1ccc2nc(-c3cc(-c4ccccc4)no3)cn2c1` [Compound N-465, 2-(3-phenylisoxazol-5-yl)-6-chloroimidazo [1,2-a]pyridine], the IC50 in series [1] was 10 nM. Besides, the “Concentration of inhibiting cell proliferation TC” value in the series with ScN2a cells is 100 µM.
In the same order, the values of `Cc1ccn2c(Br)c(-c3ccccc3)nc2c1` [Compound N-467, 2-phenyl-3-bromo-7-methylimidazo[1,2-a]pyridine] are 1000 nM and 100 µM.
For the molecule `Clc1ccc2nc(-c3ccccc3)c(Br)n2c1` [Compound N-468, 2-phenyl-3-bromo-6-chloroimidazo[1,2-a]pyridine], in series [1], the IC50 was found to be 1000 nM. The “Concentration of inhibiting cell proliferation TC” value in the series with ScN2a cells stood at 100 µM.
Turning to `Ic1ccc2nc(-c3ccccc3)cn2c1` [Compound N-469, 2-phenyl-6-iodo-imidazo[1,2-a]pyridine], the IC50 in series [1] turned out to be 100 nM. Moreover, the “Concentration of inhibiting cell proliferation TC” value in the series on ScN2a cells was “≧100 μM”.
Taken in the same sequence, the figures for `Clc1ccc2nc(-c3cccs3)cn2c1` [Compound N-471, 2-(2-thienyl)-6-chloro imidazo[1,2-a]pyridine] were 1000 nM and “≧100 μM”.
Regarding `Clc1ccc2nc(-c3ccc(Br)s3)cn2c1` [Compound N-472, 2-(5-bromo-2-thienyl)-6-chloroimidazo[1,2-a]pyridine], the IC50 in series [1] is 10 nM. For the same molecule, the “Concentration of inhibiting cell proliferation TC” value in the series with ScN2a cells worked out at 100 µM.
Regarding `Cc1ccc2nc(-c3sc(-c4ccccc4)nc3C)cn2c1` [Compound N-473, 2-(2-phenyl-4-methylthiazol-5-yl)-6-methyl-imidazo[1,2-a]pyridine], the IC50 in series [1] worked out at 1000 nM. For the same molecule, the “Concentration of inhibiting cell proliferation TC” value with ScN2a cells came out at 100 µM.
